From ChEMBL document CHEMBL1132082, “Nonsteroidal androgen receptor agonists based on 4-(trifluoromethyl)-2H-pyrano[3,2-g]quinolin-2-one” (Bioorg Med Chem Lett, 1999)

What was measured:
[1] = biological target: T1, Androgen receptor (Homo sapiens, UniProt P10275)
T1 sequence (P10275 whole entry): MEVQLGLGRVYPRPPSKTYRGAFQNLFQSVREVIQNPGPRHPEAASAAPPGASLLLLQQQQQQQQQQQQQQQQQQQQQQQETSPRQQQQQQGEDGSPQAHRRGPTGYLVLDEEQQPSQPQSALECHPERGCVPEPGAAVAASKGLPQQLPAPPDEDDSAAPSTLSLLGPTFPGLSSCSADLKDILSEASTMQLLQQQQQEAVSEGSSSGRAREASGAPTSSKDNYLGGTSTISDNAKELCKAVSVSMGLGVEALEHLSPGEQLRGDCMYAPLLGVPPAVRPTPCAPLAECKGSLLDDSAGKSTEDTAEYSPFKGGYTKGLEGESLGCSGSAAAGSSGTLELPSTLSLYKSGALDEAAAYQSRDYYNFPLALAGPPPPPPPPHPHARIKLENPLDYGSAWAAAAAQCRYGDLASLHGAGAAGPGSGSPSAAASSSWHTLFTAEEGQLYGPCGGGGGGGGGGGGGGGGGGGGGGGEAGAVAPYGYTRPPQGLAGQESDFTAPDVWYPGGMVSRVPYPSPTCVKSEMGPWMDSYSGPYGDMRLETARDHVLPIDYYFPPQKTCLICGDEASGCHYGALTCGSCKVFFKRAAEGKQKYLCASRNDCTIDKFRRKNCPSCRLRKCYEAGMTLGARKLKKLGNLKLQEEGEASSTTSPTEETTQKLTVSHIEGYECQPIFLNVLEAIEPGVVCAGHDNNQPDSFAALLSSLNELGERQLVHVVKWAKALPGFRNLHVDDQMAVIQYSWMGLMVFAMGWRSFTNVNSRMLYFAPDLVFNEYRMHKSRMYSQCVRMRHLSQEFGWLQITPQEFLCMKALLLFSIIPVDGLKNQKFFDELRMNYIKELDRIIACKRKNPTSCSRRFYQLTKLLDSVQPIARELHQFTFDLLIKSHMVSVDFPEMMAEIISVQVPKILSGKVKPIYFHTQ
Description: In vitro agonistic activity against human androgen receptor using cotransfection assay in CV-1 cells.

[2] = biological target: T1, Androgen receptor; test: biochemical
Description: In vitro binding affinity at human androgen receptor transfected into COS cells.

[3] = biological target: T1, Androgen receptor; remark: listed apart in the source
[4] = biological target: T2, Glucocorticoid receptor (Homo sapiens, UniProt P04150); test: In vitro antagonistic activity against human glucocorticoid receptor (hGR); assay type: functional
T2 sequence (P04150 whole entry): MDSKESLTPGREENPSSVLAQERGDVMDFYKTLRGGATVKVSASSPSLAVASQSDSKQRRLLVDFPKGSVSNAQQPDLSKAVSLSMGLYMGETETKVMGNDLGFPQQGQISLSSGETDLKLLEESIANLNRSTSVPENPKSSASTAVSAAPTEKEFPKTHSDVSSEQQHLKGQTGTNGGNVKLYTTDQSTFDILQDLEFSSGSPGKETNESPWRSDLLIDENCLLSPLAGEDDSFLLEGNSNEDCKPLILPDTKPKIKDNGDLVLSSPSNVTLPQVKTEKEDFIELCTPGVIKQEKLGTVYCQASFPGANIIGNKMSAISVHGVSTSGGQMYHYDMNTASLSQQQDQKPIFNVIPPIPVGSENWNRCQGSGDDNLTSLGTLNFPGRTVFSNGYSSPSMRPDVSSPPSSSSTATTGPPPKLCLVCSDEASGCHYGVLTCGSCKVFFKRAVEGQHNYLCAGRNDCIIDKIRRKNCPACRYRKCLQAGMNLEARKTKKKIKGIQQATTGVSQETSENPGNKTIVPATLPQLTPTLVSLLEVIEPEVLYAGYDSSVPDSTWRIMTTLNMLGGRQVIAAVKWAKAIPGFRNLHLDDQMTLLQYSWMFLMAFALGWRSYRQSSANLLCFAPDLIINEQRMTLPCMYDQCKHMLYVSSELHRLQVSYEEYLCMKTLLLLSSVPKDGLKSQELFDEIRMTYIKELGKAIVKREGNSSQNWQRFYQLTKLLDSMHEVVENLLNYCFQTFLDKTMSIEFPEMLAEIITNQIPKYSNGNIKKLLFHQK

[5] = biological target: T3, Estrogen receptor (Homo sapiens, UniProt Q92731+P03372); test: In vitro antagonistic activity against human estrogen receptor (hER); Not active; assay type: functional
[6] = biological target: T4, Mineralocorticoid receptor (Homo sapiens) (UniProt P08235); test: (§1) In vitro antagonistic activity against human mineralocorticoid receptor (hMR); assay type: functional
T4 sequence (whole entry): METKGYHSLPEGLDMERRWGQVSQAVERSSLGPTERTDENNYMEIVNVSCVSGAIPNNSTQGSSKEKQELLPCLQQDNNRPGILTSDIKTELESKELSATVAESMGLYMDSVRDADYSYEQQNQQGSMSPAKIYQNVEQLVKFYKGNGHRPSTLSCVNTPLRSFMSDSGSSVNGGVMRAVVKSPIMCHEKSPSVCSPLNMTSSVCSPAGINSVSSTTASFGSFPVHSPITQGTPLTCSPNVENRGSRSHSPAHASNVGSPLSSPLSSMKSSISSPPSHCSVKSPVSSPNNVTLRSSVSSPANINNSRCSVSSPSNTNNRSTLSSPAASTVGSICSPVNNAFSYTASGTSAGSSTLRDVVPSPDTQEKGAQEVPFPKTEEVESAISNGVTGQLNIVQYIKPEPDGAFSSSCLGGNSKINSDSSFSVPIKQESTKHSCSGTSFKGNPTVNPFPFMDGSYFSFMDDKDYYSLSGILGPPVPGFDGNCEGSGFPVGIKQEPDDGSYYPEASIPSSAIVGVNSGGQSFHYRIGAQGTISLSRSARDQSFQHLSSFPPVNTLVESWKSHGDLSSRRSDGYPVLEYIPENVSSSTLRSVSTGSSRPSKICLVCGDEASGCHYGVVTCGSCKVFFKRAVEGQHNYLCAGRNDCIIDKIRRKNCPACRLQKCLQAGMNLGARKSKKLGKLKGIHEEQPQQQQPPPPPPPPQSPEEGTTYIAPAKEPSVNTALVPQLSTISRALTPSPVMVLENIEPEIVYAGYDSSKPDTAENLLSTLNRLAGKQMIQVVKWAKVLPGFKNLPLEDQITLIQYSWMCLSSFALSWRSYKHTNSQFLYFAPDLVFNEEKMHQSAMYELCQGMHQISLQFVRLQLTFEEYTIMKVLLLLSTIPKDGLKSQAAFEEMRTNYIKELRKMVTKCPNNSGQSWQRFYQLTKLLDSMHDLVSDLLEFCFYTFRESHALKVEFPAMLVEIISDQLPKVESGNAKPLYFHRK

[7] = biological target: T3, Estrogen receptor; test: (§2) In vitro antagonistic activity against human estrogen receptor (hER); assay type: functional
[8] = biological target: T5, Progesterone receptor (Homo sapiens) (UniProt P06401); test: (§3) In vitro antagonistic activity against human progesterone receptor (hPR); assay type: functional
T5 sequence (whole entry): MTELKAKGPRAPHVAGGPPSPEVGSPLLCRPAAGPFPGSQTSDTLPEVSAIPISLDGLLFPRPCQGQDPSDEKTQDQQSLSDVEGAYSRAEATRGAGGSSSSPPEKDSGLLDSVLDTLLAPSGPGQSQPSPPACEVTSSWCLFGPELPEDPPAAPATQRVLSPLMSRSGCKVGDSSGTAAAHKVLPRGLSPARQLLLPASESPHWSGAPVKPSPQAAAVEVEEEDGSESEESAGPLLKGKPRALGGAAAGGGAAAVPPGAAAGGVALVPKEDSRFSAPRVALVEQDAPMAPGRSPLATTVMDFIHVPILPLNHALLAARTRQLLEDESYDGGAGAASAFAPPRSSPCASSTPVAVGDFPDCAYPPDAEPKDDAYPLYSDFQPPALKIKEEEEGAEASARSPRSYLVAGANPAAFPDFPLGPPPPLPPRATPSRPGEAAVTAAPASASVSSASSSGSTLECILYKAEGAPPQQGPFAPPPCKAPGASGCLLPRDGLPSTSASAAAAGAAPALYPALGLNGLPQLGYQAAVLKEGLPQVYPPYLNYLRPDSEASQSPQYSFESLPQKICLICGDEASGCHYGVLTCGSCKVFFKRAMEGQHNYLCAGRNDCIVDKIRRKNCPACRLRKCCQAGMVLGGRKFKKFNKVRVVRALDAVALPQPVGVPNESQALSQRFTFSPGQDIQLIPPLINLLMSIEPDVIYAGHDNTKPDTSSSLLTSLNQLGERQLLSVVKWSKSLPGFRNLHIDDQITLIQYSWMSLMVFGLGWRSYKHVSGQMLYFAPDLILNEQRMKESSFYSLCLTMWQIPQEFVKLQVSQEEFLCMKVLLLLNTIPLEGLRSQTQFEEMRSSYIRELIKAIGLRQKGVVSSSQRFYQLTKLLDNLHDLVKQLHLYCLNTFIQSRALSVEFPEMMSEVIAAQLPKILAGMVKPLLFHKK

[9] = biological target: T1, Androgen receptor; remark: listed apart in the source
[10] = biological target: T6, Mineralocorticoid receptor (Homo sapiens, UniProt P08235); test: as §1; assay type: functional
T6 sequence (P08235 whole entry): T4 sequence (whole entry)

[11] = biological target: T7, Progesterone receptor (Homo sapiens, UniProt P06401); test: as §3; assay type: functional
T7 sequence (P06401 whole entry): T5 sequence (whole entry)

[12] = biological target: T3, Estrogen receptor; test: In vitro antagonistic activity against human estrogen receptor (hER); not active; assay type: functional
[13] = biological target: T2, Glucocorticoid receptor; test: In vitro antagonistic activity against human glucocorticoid receptor (hGR); not active; assay type: functional
[14] = biological target: T6, Mineralocorticoid receptor; test: In vitro antagonistic activity against human mineralocorticoid receptor (hMR); not active; assay type: functional
[15] = biological target: T3, Estrogen receptor; test: as §2; assay type: functional; remark: listed apart in the source

| Structure (SMILES) | EC50 [1] [nM] | IC50 [2] [nM] | IC50 [3] [nM] | IC50 [4] [nM] | IC50 [5] [nM] | Efficacy [6] [%] | Efficacy [7] [%] | Efficacy [8] [%] | EC50 [9] [nM] | IC50 [10] [nM] | IC50 [11] [nM] | IC50 [12] [nM] | IC50 [13] [nM] | IC50 [14] [nM] | IC50 [15] [nM] |
| --- | --- | --- | --- | --- | --- | --- | --- | --- | --- | --- | --- | --- | --- | --- | --- |
| CCC1CCc2cc3c(C(F)(F)F)cc(=O)oc3cc2N1 (centres undefined) | 7 | 1 | > 10 |  |  |  |  |  |  |  |  |  |  |  |  |
| CC[C@@H]1CNc2cc3oc(=O)cc(C(F)(F)F)c3cc2[C@H]1CC (stereo in doubt) | 5 |  |  | 2800 | > 10000 | 50 | < 20 | 98 | 1400 | 1900 | 65 |  |  |  |  |
| CC[C@H]1C[C@@H](C)Nc2cc3oc(=O)cc(C(F)(F)F)c3cc21 (relative stereo) | 27 | 12 |  |  |  |  |  |  | 16 |  |  |  |  |  |  |
| CCC1CC(C)c2cc3c(C(F)(F)F)cc(=O)oc3cc2N1 (cis isomer) | 8 | 11 | > 10 |  |  |  |  |  |  |  |  |  |  |  |  |
| CC[C@@H]1c2cc3c(C(F)(F)F)cc(=O)oc3cc2NC[C@H]1C (relative stereo) | 1 | 0.3 | > 10 | 2300 |  | 60 | < 20 | 98 |  | 3000 | 130 | > 10000 |  |  |  |
| CCC1CC(CC)c2cc3c(C(F)(F)F)cc(=O)oc3cc2N1 (trans isomer) | 26 | 7 | > 10 |  |  |  |  |  |  |  |  |  |  |  |  |
| O=c1cc(C(F)(F)F)c2cc3c(cc2o1)NCCC3 | 19 | 1 | > 10 |  |  |  |  |  |  |  |  |  |  |  |  |
| CC1=CC(C)(C)Nc2cc3oc(=O)cc(C(F)(F)F)c3cc21 |  |  |  |  |  | < 20 | < 20 | 79 |  |  | 100 | > 10000 | > 10000 | > 10000 |  |
| O=c1cc(C(F)(F)F)c2cc3c(cc2o1)NCCC3C(F)(F)C(F)(F)F (centres undefined) | 13 | 5 | > 10 |  |  |  |  |  |  |  |  |  |  |  |  |
| CCC1CCN(C)c2cc3oc(=O)cc(C(F)(F)F)c3cc21 (centres undefined) | 209 | 276 | > 10 |  |  |  |  |  |  |  |  |  |  |  |  |
| CC[C@H]1c2cc3c(C(F)(F)F)cc(=O)oc3cc2NC[C@H]1C (relative stereo) | 7 | 2 | > 10 | 340 |  | 39 | 33 | 87 |  | 2800 | 130 |  |  |  | 3100 |
| CC1(C)CCc2cc3c(C(F)(F)F)cc(=O)oc3cc2N1 | 9 | 1 | > 10 |  |  | 50 | < 20 | 84 |  | 1500 | 570 | > 10000 | > 10000 |  |  |
| CC[C@H]1CNc2cc3oc(=O)cc(C(F)(F)F)c3cc2[C@@H]1CC (stereo in doubt) | 5 |  | > 10 |  |  |  |  |  |  |  |  |  |  |  |  |
